Consider two compounds from BindingDB's records for doi:10.1021/jm00095a003 (C.N.R.-Centro Studio Sostanze Organiche Naturali, 1992).

Test [1] deals with T1, Muscarinic acetylcholine receptor (Cavia porcellus, UniProt Q8VH26). Briefly: Dissociation constant at muscarinic acetylcholine receptor M3 of guinea pig ileum.
The target in test [2] is T1, Muscarinic acetylcholine receptor. Briefly: Dissociation constant at muscarinic acetylcholine receptor M3 guinea pig bladder.
Test [3] shares this target. Briefly: Dissociation constant at muscarinic M3 receptors of guinea pig bladder.
Test [4] shares this target. Briefly: Dissociation constant at muscarinic M3 receptors of guinea pig ileum.

T1 sequence (Q8VH26 whole entry): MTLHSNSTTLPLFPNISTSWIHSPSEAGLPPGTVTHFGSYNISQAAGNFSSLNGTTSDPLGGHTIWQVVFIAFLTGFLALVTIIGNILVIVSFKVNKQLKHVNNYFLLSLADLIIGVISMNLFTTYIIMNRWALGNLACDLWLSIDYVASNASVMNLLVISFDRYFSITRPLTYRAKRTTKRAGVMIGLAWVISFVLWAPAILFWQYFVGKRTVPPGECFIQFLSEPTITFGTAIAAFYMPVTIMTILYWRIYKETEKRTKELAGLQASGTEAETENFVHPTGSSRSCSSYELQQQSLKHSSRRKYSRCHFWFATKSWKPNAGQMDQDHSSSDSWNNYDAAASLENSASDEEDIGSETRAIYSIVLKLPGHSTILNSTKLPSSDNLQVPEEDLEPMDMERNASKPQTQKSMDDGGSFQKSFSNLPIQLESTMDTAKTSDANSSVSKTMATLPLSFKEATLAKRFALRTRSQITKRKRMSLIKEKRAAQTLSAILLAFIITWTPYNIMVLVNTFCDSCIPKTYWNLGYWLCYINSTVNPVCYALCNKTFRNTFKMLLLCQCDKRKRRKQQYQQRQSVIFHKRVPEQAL

Regarding `C[C@@H]1O[C@H](C[N+](C)(C)C)C[C@H]1O`, the values for the Kd in test [1] and in test [2] were 1120 nM and 24 µM, respectively.
For the compound `C[C@@H]1O[C@H](C[N+](C)(C)C)C[C@H]1F`, the Kd in test [3] came to 40.7 µM; in test [4], 1910 nM.
